Data taken from paper PMC5078040 (Oncotarget, 2016).

Key:
[1] = biological target: T1, FGR (Homo sapiens, UniProt P09769); assay: KinomeScan; format: binding; details: 1uM
T1 construct: purchased DiscoveRx KINOMEscan

[2] = biological target: T2, NEK10 (Homo sapiens, UniProt Q6ZWH5); assay: KinomeScan; format: binding; details: 1uM
T2 construct: purchased DiscoveRx KINOMEscan

[3] = biological target: T3, MAST1 (Homo sapiens, UniProt Q9Y2H9); assay: KinomeScan; format: binding; details: 1uM
T3 construct: purchased DiscoveRx KINOMEscan

[4] = biological target: T4, ADCK3 (Homo sapiens, UniProt Q8NI60); assay: KinomeScan; format: binding; details: 1uM
T4 construct: purchased DiscoveRx KINOMEscan
T4 sequence (Q8NI60 163-647): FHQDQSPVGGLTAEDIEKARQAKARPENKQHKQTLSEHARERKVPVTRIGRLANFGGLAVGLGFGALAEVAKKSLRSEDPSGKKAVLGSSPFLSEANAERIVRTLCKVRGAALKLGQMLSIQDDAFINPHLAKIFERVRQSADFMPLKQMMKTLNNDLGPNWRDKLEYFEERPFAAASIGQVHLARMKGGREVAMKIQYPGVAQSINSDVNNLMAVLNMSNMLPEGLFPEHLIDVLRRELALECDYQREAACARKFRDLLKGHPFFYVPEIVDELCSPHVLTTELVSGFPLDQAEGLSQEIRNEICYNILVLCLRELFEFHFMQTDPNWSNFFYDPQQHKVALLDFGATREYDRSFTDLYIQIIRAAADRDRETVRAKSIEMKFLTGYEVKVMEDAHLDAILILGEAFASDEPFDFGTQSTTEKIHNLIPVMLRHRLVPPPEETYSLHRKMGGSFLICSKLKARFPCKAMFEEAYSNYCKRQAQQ

[5] = biological target: T5, TYK2(JH2domain-pseudokinase) (Homo sapiens, UniProt P29597); assay: KinomeScan; format: binding; details: 1uM
T5 construct: TYK2(JH2domain-pseudokinase); purchased DiscoveRx KINOMEscan

[6] = biological target: T6, EGFR(L747-S752del, P753S) (Homo sapiens, UniProt P00533, DEL747-752/P753S); assay: KinomeScan; format: binding; details: 1uM
T6 construct: purchased DiscoveRx KINOMEscan
T6 sequence (P00533 with tags, fused parts or gaps DEL747-752/P753S limits assumed): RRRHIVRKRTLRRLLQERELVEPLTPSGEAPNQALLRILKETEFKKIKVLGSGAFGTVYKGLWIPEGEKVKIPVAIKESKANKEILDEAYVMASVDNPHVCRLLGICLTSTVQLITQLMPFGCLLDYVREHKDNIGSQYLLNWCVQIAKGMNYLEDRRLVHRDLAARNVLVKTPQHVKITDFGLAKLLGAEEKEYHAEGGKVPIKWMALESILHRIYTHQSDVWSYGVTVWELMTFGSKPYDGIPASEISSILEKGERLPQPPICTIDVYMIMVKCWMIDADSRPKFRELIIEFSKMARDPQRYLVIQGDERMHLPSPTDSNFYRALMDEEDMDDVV

[7] = biological target: T7, AKT3 (Homo sapiens, UniProt Q9Y243); assay: KinomeScan; format: binding; details: 1uM
T7 construct: purchased DiscoveRx KINOMEscan

[8] = biological target: T8, PI3Kα (Mus musculus, UniProt P42337); assay: PI3Ks isoform in cell EC50 assay (AKT phosphorylation, Western Blotting); format: cell-based; details: NIH-3T3, 20ng/ml PDGF-BB, read-out: cellular EC50 PI3K Alpha
T8 construct: endogenous in cells; host or cells: NIH-3T3

[9] = biological target: T9, CAMK1G (Homo sapiens, UniProt Q96NX5); assay: KinomeScan; format: binding; details: 1uM
T9 construct: purchased DiscoveRx KINOMEscan

[10] = biological target: T10, BRK (Homo sapiens, UniProt Q13882); assay: KinomeScan; format: binding; details: 1uM
T10 construct: purchased DiscoveRx KINOMEscan

[11] = biological target: T11, MEK2 (Homo sapiens, UniProt P36507); assay: KinomeScan; format: binding; details: 1uM
T11 construct: purchased DiscoveRx KINOMEscan
T11 sequence (P36507 whole entry): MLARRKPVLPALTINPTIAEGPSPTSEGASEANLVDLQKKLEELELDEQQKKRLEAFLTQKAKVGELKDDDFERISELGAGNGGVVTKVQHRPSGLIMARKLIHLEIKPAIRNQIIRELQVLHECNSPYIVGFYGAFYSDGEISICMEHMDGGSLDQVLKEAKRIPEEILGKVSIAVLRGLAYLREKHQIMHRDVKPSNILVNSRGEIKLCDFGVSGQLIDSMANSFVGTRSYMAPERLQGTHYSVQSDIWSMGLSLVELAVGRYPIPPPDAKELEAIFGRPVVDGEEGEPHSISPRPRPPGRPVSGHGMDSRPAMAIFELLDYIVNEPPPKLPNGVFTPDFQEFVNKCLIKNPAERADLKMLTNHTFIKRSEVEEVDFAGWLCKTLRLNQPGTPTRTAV

[12] = biological target: T12, FGFR2 (Homo sapiens, UniProt P21802); assay: KinomeScan; format: binding; details: 1uM
T12 construct: purchased DiscoveRx KINOMEscan

[13] = biological target: T13, PIK3CA(E545A) (Homo sapiens, UniProt P42336, E545A); assay: KinomeScan; format: binding; details: 1uM
T13 construct: purchased DiscoveRx KINOMEscan

[14] = biological target: T14, Vps34 (Homo sapiens, UniProt Q8NEB9); assay: ADP-glo biochemical assay
T14 construct: purchased Invitrogen
Experimental: (§1) The reaction in each tube was started immediately by adding ATP and kept going for an hour under 37°C. After the tube cooled for 5 minutes at room temperature, 5 μL solvent reactions were carried out in a 384-well plate. Then 5 μL of ADP-Glo™ reagent was added into each well to stop the reaction and consume the remaining ADP within 40 minutes. At the end, 10 μL of kinase detection reagent was added into the well and incubated for 30 minutes to produce a luminescence signal. Luminescence signal was measured with an automated plate reader (Perkin-Elmer Envision) and each measurement was performed in triplicate.

[15] = biological target: T15, LZK (Homo sapiens, UniProt O43283); assay: KinomeScan; format: binding; details: 1uM
T15 construct: purchased DiscoveRx KINOMEscan

[16] = biological target: T16, PKN2 (Homo sapiens, UniProt Q16513); assay: KinomeScan; format: binding; details: 1uM
T16 construct: purchased DiscoveRx KINOMEscan

[17] = biological target: T17, PIK3C2A (Homo sapiens, UniProt O00443); assay: ADP-glo biochemical assay
T17 construct: purchased Invitrogen
Experimental: as §1

[18] = biological target: T18, ALK(L1196M) (Homo sapiens, UniProt Q9UM73, L1196M); assay: KinomeScan; format: binding; details: 1uM
T18 construct: purchased DiscoveRx KINOMEscan

[19] = biological target: T19, LOK (Homo sapiens, UniProt O94804); assay: KinomeScan; format: binding; details: 1uM
T19 construct: purchased DiscoveRx KINOMEscan

[20] = biological target: T20, PAK1 (Homo sapiens, UniProt Q13153); assay: KinomeScan; format: binding; details: 1uM
T20 construct: purchased DiscoveRx KINOMEscan

[21] = biological target: T21, MAP4K2 (Homo sapiens, UniProt Q12851); assay: KinomeScan; format: binding; details: 1uM
T21 construct: purchased DiscoveRx KINOMEscan

[22] = biological target: T22, EGFR(G719C) (Homo sapiens, UniProt P00533, G719C); assay: KinomeScan; format: binding; details: 1uM
T22 construct: purchased DiscoveRx KINOMEscan

[23] = biological target: T23, CSNK2A1 (Homo sapiens, UniProt P68400); assay: KinomeScan; format: binding; details: 1uM
T23 construct: purchased DiscoveRx KINOMEscan

[24] = biological target: T24, IRAK1 (Homo sapiens, UniProt P51617); assay: KinomeScan; format: binding; details: 1uM
T24 construct: purchased DiscoveRx KINOMEscan
T24 sequence (P51617 whole entry): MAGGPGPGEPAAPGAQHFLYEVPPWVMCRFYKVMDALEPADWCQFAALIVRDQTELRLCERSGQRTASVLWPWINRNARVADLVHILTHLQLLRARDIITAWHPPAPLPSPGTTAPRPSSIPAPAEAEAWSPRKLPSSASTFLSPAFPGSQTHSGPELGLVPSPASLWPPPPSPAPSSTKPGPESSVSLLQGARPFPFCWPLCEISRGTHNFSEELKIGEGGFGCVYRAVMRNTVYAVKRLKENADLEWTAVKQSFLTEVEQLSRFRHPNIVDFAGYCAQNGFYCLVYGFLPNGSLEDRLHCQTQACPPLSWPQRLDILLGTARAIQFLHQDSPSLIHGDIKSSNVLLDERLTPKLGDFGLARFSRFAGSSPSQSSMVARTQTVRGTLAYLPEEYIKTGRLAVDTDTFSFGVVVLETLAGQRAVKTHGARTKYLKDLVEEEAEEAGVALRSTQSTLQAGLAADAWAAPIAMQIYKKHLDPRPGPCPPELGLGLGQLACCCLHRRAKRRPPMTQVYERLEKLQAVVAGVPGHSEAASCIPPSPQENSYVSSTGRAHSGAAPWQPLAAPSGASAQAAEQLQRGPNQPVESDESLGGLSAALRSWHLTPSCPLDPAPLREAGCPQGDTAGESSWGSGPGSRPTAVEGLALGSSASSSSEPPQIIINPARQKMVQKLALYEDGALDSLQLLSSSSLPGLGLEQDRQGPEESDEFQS

[25] = biological target: T25, BRSK1 (Homo sapiens, UniProt Q8TDC3); assay: KinomeScan; format: binding; details: 1uM
T25 construct: purchased DiscoveRx KINOMEscan

[26] = biological target: T26, CDK5 (Homo sapiens, UniProt Q00535); assay: KinomeScan; format: binding; details: 1uM
T26 construct: purchased DiscoveRx KINOMEscan
T26 sequence (Q00535 whole entry): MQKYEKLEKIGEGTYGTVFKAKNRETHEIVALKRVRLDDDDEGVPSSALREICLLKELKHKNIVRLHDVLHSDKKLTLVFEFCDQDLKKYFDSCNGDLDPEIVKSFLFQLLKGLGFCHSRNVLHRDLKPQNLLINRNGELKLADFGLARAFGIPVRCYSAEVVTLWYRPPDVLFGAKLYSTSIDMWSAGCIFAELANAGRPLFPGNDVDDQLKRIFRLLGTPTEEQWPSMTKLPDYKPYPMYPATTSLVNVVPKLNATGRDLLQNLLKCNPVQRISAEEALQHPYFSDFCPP

[27] = biological target: T27, MINK (Homo sapiens, UniProt Q8N4C8); assay: KinomeScan; format: binding; details: 1uM
T27 construct: purchased DiscoveRx KINOMEscan

[28] = biological target: T28, DCAMKL1 (Homo sapiens, UniProt O15075); assay: KinomeScan; format: binding; details: 1uM
T28 construct: purchased DiscoveRx KINOMEscan

[29] = biological target: T29, EPHB2 (Homo sapiens, UniProt P29323); assay: KinomeScan; format: binding; details: 1uM
T29 construct: purchased DiscoveRx KINOMEscan
T29 sequence (P29323 19-1055): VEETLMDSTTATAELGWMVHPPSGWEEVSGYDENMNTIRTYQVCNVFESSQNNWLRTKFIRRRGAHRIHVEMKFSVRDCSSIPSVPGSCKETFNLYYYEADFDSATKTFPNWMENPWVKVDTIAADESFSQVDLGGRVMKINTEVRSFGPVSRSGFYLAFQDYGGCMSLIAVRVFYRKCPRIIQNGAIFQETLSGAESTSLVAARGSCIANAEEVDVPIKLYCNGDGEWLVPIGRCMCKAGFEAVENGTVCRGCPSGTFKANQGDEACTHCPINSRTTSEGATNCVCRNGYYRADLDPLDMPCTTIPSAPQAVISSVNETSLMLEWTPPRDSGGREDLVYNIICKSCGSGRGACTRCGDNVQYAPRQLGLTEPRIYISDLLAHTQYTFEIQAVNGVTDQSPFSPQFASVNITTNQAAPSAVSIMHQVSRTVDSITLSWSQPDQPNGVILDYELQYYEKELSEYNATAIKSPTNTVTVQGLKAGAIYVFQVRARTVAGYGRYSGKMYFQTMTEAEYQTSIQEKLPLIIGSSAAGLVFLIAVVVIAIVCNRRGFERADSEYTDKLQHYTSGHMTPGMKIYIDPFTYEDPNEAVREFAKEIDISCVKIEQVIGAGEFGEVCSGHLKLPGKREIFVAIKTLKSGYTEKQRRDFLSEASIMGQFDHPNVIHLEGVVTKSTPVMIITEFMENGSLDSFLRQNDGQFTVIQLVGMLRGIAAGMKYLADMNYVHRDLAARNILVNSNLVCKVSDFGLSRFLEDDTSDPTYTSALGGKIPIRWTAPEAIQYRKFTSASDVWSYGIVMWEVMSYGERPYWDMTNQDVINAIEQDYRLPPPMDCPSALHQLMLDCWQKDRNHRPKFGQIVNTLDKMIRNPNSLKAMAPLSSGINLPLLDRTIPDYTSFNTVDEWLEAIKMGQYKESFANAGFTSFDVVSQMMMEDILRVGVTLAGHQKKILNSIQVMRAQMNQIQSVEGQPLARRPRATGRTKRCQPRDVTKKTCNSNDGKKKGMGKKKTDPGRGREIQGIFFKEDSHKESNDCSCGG

[30] = biological target: T30, ASK2 (Homo sapiens, UniProt O95382); assay: KinomeScan; format: binding; details: 1uM
T30 construct: purchased DiscoveRx KINOMEscan

[31] = biological target: T31, PRKD1 (Homo sapiens, UniProt Q15139); assay: KinomeScan; format: binding; details: 1uM
T31 construct: purchased DiscoveRx KINOMEscan

[32] = biological target: T32, EGFR(L861Q) (Homo sapiens, UniProt P00533, L861Q); assay: KinomeScan; format: binding; details: 1uM
T32 construct: purchased DiscoveRx KINOMEscan

[33] = biological target: T33, LIMK1 (Homo sapiens, UniProt P53667); assay: KinomeScan; format: binding; details: 1uM
T33 construct: purchased DiscoveRx KINOMEscan

[34] = biological target: T34, CDC2L1 (Homo sapiens, UniProt P21127); assay: KinomeScan; format: binding; details: 1uM
T34 construct: purchased DiscoveRx KINOMEscan

[35] = biological target: T35, ABL1-nonphosphorylated (Homo sapiens, UniProt P00519); assay: KinomeScan; format: binding; details: 1uM
T35 construct: purchased DiscoveRx KINOMEscan

[36] = biological target: T36, MST2 (Homo sapiens, UniProt Q13188); assay: KinomeScan; format: binding; details: 1uM
T36 construct: purchased DiscoveRx KINOMEscan

[37] = biological target: T37, JNK1 (Homo sapiens, UniProt P45983); assay: KinomeScan; format: binding; details: 1uM
T37 construct: purchased DiscoveRx KINOMEscan
T37 sequence (P45983 whole entry): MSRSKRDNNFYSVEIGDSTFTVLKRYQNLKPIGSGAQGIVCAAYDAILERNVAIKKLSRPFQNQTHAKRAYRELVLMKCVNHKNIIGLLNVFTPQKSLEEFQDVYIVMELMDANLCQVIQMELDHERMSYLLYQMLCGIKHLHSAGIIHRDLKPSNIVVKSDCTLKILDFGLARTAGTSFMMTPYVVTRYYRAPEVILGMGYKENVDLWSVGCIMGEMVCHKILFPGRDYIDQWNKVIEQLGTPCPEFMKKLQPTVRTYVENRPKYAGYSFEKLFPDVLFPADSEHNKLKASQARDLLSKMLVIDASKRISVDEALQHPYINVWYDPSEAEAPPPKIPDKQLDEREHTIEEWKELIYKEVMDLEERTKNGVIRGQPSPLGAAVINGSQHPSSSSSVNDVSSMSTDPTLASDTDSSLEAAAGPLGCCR

[38] = biological target: T38, ZAP70 (Homo sapiens, UniProt P43403); assay: KinomeScan; format: binding; details: 1uM
T38 construct: purchased DiscoveRx KINOMEscan
T38 sequence (P43403 whole entry): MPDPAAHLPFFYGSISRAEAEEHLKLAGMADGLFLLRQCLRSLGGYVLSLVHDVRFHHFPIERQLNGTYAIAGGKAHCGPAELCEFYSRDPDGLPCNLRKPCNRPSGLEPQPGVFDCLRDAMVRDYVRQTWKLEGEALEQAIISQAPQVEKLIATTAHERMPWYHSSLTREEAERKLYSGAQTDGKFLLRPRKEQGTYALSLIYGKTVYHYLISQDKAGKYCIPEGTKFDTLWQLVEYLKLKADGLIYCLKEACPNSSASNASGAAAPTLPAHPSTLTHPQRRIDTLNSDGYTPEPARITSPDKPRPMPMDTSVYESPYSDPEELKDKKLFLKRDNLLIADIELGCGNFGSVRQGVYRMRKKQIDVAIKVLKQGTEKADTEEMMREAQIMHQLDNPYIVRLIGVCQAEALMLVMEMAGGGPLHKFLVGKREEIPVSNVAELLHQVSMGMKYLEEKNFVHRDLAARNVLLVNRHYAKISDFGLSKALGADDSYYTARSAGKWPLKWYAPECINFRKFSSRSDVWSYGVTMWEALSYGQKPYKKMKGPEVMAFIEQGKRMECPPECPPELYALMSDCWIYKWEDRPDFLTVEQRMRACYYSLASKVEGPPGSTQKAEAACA

[39] = biological target: T39, SNARK (Homo sapiens, UniProt Q9H093); assay: KinomeScan; format: binding; details: 1uM
T39 construct: purchased DiscoveRx KINOMEscan

[40] = biological target: T40, FLT1 (Homo sapiens, UniProt P17948); assay: KinomeScan; format: binding; details: 1uM
T40 construct: purchased DiscoveRx KINOMEscan

[41] = biological target: T41, EGFR (Homo sapiens, UniProt P00533); assay: KinomeScan; format: binding; details: 1uM
T41 construct: purchased DiscoveRx KINOMEscan

[42] = biological target: T42, MEK4 (Homo sapiens, UniProt P45985); assay: KinomeScan; format: binding; details: 1uM
T42 construct: purchased DiscoveRx KINOMEscan
T42 sequence (P45985 whole entry): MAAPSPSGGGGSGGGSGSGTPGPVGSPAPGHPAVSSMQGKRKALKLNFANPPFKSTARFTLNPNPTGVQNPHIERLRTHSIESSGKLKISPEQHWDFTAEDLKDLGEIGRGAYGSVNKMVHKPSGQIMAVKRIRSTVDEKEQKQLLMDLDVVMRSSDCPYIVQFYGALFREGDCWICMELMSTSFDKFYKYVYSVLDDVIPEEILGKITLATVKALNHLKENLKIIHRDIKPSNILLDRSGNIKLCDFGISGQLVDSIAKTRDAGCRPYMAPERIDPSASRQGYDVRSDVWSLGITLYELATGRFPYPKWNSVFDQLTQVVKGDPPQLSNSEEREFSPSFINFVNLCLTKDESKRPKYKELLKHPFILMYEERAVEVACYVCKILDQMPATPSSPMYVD

Cc1nc(NC(=O)[C@@H](N)C(C)C)sc1-c1cnc(Cl)c(NS(=O)(=O)c2ccccc2)c1 [PI3KD-IN-015]
KinomeScan FGR [1]: 100 | KinomeScan NEK10 [2]: 83 | KinomeScan MAST1 [3]: 100 | KinomeScan ADCK3 [4]: 100 | KinomeScan TYK2(JH2domain-pseudokinase) [5]: 100 | KinomeScan EGFR(L747-S752del, P753S) [6]: 100 | KinomeScan AKT3 [7]: 89 | EC50 [8]: > 3 µM | KinomeScan CAMK1G [9]: 94 | KinomeScan BRK [10]: 92 | KinomeScan MEK2 [11]: 94 | KinomeScan FGFR2 [12]: 100 | KinomeScan PIK3CA(E545A) [13]: 5.2 | IC50 [14]: 0.28 µM | KinomeScan LZK [15]: 92 | KinomeScan PKN2 [16]: 100 | IC50 [17]: > 10 µM | KinomeScan ALK(L1196M) [18]: 100 | KinomeScan LOK [19]: 99 | KinomeScan PAK1 [20]: 100 | KinomeScan MAP4K2 [21]: 91 | KinomeScan EGFR(G719C) [22]: 100 | KinomeScan CSNK2A1 [23]: 100 | KinomeScan IRAK1 [24]: 60 | KinomeScan BRSK1 [25]: 100 | KinomeScan CDK5 [26]: 100 | KinomeScan MINK [27]: 100 | KinomeScan DCAMKL1 [28]: 61 | KinomeScan EPHB2 [29]: 100 | KinomeScan ASK2 [30]: 84 | KinomeScan PRKD1 [31]: 100 | KinomeScan EGFR(L861Q) [32]: 95 | KinomeScan LIMK1 [33]: 100 | KinomeScan CDC2L1 [34]: 100 | KinomeScan ABL1-nonphosphorylated [35]: 100 | KinomeScan MST2 [36]: 87 | KinomeScan JNK1 [37]: 100 | KinomeScan ZAP70 [38]: 96 | KinomeScan SNARK [39]: 97 | KinomeScan FLT1 [40]: 89 | KinomeScan EGFR [41]: 100 | KinomeScan MEK4 [42]: 100
